Consider 9 compounds from patent US20080103209A1, “Compounds And Methods For Treating Non-Inflammatory Pain Using Ppar Alpha Agonists” (The Regents of The University of California, priority 2004, published 2008).

Test [1] deals with T1, human PPARα (Homo sapiens, UniProt Q07869).
T1 construct: expressed in transfected cells
T1 sequence (Q07869 239-466 limits assumed): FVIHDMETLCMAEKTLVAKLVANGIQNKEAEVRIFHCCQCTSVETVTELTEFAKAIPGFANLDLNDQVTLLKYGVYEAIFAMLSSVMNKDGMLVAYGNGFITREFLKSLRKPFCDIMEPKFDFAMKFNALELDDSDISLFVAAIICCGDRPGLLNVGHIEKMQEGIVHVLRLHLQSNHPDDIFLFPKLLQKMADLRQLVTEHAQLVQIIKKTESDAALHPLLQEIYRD
Briefly: PPARα transactivation assay (HeLa cells, luciferase reporter). Type of test: cell-based. How it is done: Transactivation assays were performed as previously described [Fu et al., Nature 425:90-93 (2003)].
PPAR-α transactivation. Plasmids were generated which contained the ligand-binding domain of human PPAR-α (nucleotides 499-1,407) fused to the DNA-binding domain of yeast GAL4 under control of the human cytomegalovirus promoter and to a neomycin resistance gene to provide stable selection with 0.2 mg-ml-1 G418 (Calbiochem). We cultured HeLa cells in Dulbecco's-modified Eagles's medium (DMEM) supplemented with fetal bovine serum (10%), transfected them with Fugene 6 ([…], Roche) containing the pFR-luc plasmid ([…], Stratagene) and, 18 h later, replaced the media with DMEM containing hygromycin (0.1 mg ml−1, Calbiochem). […] Cells were maintained in DMEM containing hygromycin and G418. For transactivation assays, we seeded cells in 6-well plates and incubated them for 7 h in DMEM containing hygromycin and G418, plus appropriate concentrations of test compounds. We used a dual-luciferase reporter assay system (Promega) and an MLX Microtiter® plate luminometer (Dynex) to determine luciferase activity in cell lysates.
A general note: A reporter such as luciferase makes a cellular process visible.

In test [2] the test system is mice. Briefly: Formalin-evoked pain behavior (hind paw licking). Type of test: in vivo, mouse. The settings on record: for phase I and II formalin pain in wild-type mice: wild-type C57BL6 mice; for effect of CB2 antagonist on antinociceptive effect of GW7647: GW7647 50 μg i.pl.; for effect of CB2 antagonist on antinociceptive effect of GW7647 / effect of CB2 antagonist on antinociceptive effect of PEA: AM630 2 mg-kg^−1 i.p.; for effect of CB2 antagonist on antinociceptive effect of PEA: PEA 50 μg i.pl. The method, then:
Administration of formalin into the mouse hind paw evokes a pain behavior consisting of two temporally distinct phases of licking and flexing of the injected limb (Dubuisson, et al., Pain 4, 161-74 (1977)). The first phase, which starts immediately after formalin injection and lasts 5-10 min, is due to activation of nociceptive fibers and is accompanied by the local release of nitric oxide and adenosine [Dickenson, et al., Neurosci Lett 83, 207-11 (1987); Omote, et al., Brain Res 787, 161-4 (1998); Omote et al., 2000; Liu, et al., J Neurochem 80, 562-70 (2002)]. Following a quiescent interval of 10-15 minutes, a second phase of nociceptive behavior appears, which is associated with local inflammation [Rosland, et al., Pain 42, 235-42 (1990)] and central sensitization [Coderre, et al., J Neurosci 12, 3665-70 (1992)]. […] (2001); Farquuar-Smith, 2002]. […] The effects of PEA in C57BL/6J mice in which the PPARα gene had been deleted by homologous recombination (PPARα^−/−)[Lee, et al., Mol Cell Biol 15, 3012-22 (1995)] were examined to determine whether PPARα contributes to these properties.
Although PPARα is known to regulate the inflammatory response [Devchand, et al., Nature 384, 39-43. (1996); Cabrero, et al., Curr Drug Targets Inflamm Allergy 1, 243-8 (2002); Berger, et al., Annu Rev Med 53, 409-35 (2002); Chinetti, et al., Inflamm Res 49, 497-505 (2000)], its roles in the modulation of acute nociceptive pain remain unexplored. A series of structurally diverse PPAR-α agonists were tested for their ability to reduce pain behavior in an animal model of chemical tissue damage. Injection of formalin into the mouse hind paw evokes a nocifensive behavior consisting of two distinct phases. The first phase results from direct activation of nociceptive fibers and starts immediately after formalin administration, while the second phase develops over a period of approximately 60 min and is associated with local inflammation and central sensitization.
Mice received intraplantar injections of formalin (5% vol/vol, 10 μl) in saline containing polyethylene glycol (5%) and Tween 80 (5%). The duration of paw licking was monitored by an observer for periods of 0-15 min (early or first phase) and 15-45 min (late or second phase) immediately after formalin administration.
Formalin test. Formalin (5%, 10 μl)-induced paw licking was monitored for 0-15 min (first phase) and 15-45 min (second phase) as described (Calignano, et al., Nature 394, 277-81 (1998).

For test [3], the system named is mice. Briefly: Magnesium sulfate-evoked writhing test. The test is classed as in vivo, mouse. The settings on record: subcutaneous, Swiss mice. The method, then: Mice received a single dose of magnesium sulfate (120 mg/kg, dissolved in 0.5 ml saline, i.p.) and subsequent writhing episodes were monitored for a period of 30 min thereafter. Drugs were administered in saline/Tween 80/polyethylenglycol, (90/5/5) subcutaneously, 30 minutes before magnesium sulfate.
Next, the effect of PPARα agonists on the nocifensive behavior elicited by intraperitoneal injection of magnesium sulfate in mice, a model of visceral pain (Calignano, et al, Eur J Pharmacol 419, 191-8. (2001)), was explored.
Writhing test. Magnesium sulfate was injected (120 mg-kg^−1 in 0.5 ml saline, i.p.) in 12-h food-deprived mice and measured writhing episodes for 30 min (Calignano, et al, Eur J Pharmacol 419, 191-8. (2001)). Drugs or vehicle were administered by subcutaneous injection 30 min before magnesium sulfate.

Test [4] deals with mice. Briefly: TPA-induced ear edema (irritant contact dermatitis). The test is classed as in vivo, mouse. The settings on record: topical co-application, CD1 mice. From the text: (§1) In addition to rapid-onset analgesia, PEA also exerts prolonged anti-inflammatory effects [Benvenuti, et al., Boll Soc It Biol Sper 44, 809-813 (1968); Lambert, et al., Curr Med. Chem. 9, 663-74 (2002)], which are associated with the down-regulation of pro-inflammatory proteins such as nitric oxide synthase (NOS) [Costa, et al., Br J Pharmacol 137, 413-20. (2002)]. Two models of acute inflammation were used to examine whether such effects are mediated through PPARα. First, paw edema was induced in C57B16J wild-type and PPARα^−/− mice by local injection of the irritant, carrageenan [Cirino, et al., Eur J Pharmacol 166, 505-10 (1989)]. […] Next, ear edema was produced in CD1 mice by topical administration of the phorbol ester, 12-O-tetradecanoylphorbol-13-acetate (TPA) [Sheu, et al., J Invest Dermatol., 94-101. (2002)]. […] In a parallel set of experiments, the effects of PEA (20 μg) on TPA-induced edema were tested in C57B16J wild-type and PPARα^−/− mice. […] Together, these findings indicate that PEA reduces acute nociception and inflammation through activation of PPARα.
As previous described procedure [Sheu, et al., J Invest Dermatol., 94-101. (2002)], 12-O-tetradecanoylphorbol-13-acetate (TPA) was dissolved in acetone (0.03%, w v^−1) and topically delivered with a pipette to the inner and outer surfaces (10 μl/side) of mice ears. Experimental agents were dissolved in acetone and delivered topically (20 μl/side) 45 minutes and 4 hours after TPA. 18 hours after TPA administration, the mice were euthanized with CO2 and the ears punched (diameter=2 mm) four times. The 4 excised punches of skin were combined and weighed to assess edema.

Test [5] has as its system mice. Briefly: Carrageenan-evoked paw edema (acute). Type of test: in vivo, mouse. The settings on record: wild-type C57Bl6J; PEA 10 mg-kg^−1 i.p., WY-14643 20 mg-kg^−1 i.p.
Excerpt: as §1
An inflammatory response was initiated by injecting 2% (w v^−1, 20 μl) λ-carrageenan in sterile saline into mice hind paws using a 27-gauge needle. Drugs were administered 30 minutes before carrageenan (i.p.). Paw edema was measured using a plethysmometer (Ugo Basile, Italy).
On the technique in general: The carrageenan paw model is a standard test of acute inflammation.

Test [6] deals with T2, human CB2 (Homo sapiens, UniProt P34972).
T2 construct: purchased Perkin-Elmer, Boston, Mass; host or cells: CHO cells (membranes)
Briefly: CB2 receptor binding, [3H]-WIN-55212-2 displacement in CB2-overexpressing CHO cell membranes.

Test [7] concerns Swiss mice. Briefly: Sciatic nerve ligation neuropathy, mechanical and thermal hyperalgesia. The test is classed as in vivo, mouse. How it is done:
To examine whether PPARα agonists modulate the persistent pain hypersensitivity associated with nerve injury, peripheral neuropathy was produced in mice by partially ligating the left sciatic nerve, a surgical procedure that results in the development of mechanical and thermal hyperalgesia in the operated limb (Bennett et al., Pain, 33, 87 (1988)).
Sciatic nerve ligation was performed essentially following the method of Bennett and Xie (Bennett et al., Pain 33, 87 (1988)). Briefly, male Swiss mice were anesthetized with sodium pentobarbital, the left sciatic nerve was exposed at mid-thigh level through a small incision and one-third to one-half of the nerve thickness was tightly ligated with a silk thread. The wound was closed with a single muscle suture and skin clips, and dusted with streptomycin powder. In sham-operated animals, the nerve was exposed but not ligated.
Mechanical hyperalgesia was determined by measuring paw withdrawal thresholds to an increasing pressure onto the dorsal surface of the paw using an analgesimeter (Ugo Basile, Italy) with a cut-off of 250 g. Withdrawal thresholds were measured on both the ipsilateral paw (inflamed or ligated) and contralateral paw (uninflamed or unligated) 60 min after subcutaneous drug administration.
Thermal hyperalgesia was assessed by the methods of Hargreaves (Hargreaves et al., Pain, 32, 77 (1988)) by measuring the latency to withdraw the hind paws from a focussed beam of radiant heat applied to the plantar surface, using an appropriate apparatus (Ugo Basile, Italy). The cut-off time was set at 30 sec. The mice were habituated to the apparatus for 10-15 min two days prior to the experiment.

[8] abbreviates: formalin, Swiss mice, SR144528 1 mg-kg^−1.

T2 sequence (P34972 whole entry): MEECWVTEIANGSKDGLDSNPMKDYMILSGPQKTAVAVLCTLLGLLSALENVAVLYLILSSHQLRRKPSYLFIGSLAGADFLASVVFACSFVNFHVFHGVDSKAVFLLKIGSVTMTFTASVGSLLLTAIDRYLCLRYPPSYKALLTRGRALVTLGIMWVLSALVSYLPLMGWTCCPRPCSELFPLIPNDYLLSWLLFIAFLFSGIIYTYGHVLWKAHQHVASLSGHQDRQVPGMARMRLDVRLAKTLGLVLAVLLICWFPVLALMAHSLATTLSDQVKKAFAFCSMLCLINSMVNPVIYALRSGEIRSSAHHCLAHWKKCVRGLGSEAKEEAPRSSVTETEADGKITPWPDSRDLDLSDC

With `CCCCCCCCCCCCCCCC(=O)O` [palmitic acid], the “PPARα activation” value in test [1] (HeLa cells, identical conditions) is given as “no effect”.
In the case of `CCCCC/C=C\C/C=C\C/C=C\C/C=C\CCCC(=O)N[C@H](C)CO` [(R)-methanandamide], the “formalin pain in PPARα−/− mice” value in test [2] (PPARα−/− mice, 50 μg i.pl.) is given as “reversed”.
Turning to `CC1(COc2ccc(CC3SC(=O)NC3=O)cc2)CCCCC1` (stereo not drawn) [ciglitazone], the “phase I and II formalin pain in wild-type mice” value in test [2] (50 μg i.pl.) is “inactive”.
Regarding `COc1ccc(C(=O)c2c(C)n(CCN3CCOCC3)c3cc(I)ccc23)cc1` [AM630], in test [2] (setting [8]), the “effect of CB2 antagonist on antinociceptive effect of GW7647” value is “did not affect” and the “effect of CB2 antagonist on antinociceptive effect of PEA” value is reported as “did not affect”.
Consider `Cc1cccc(Nc2cc(Cl)nc(SCC(=O)O)n2)c1C` [Wy-14643, [4-chloro-6-(2,3-xylidino)-2-pyrimidinylthio]acetic acid], for which the “first- and second-phase nociception” value in test [2] (Swiss mice, i.pl. together with formalin, GW7647 0.1-50 μg, Wy-14643 50-200 μg, fenofibric acid 100-400 μg) was “attenuated first- and second-phase nociception in a dose-dependent manner”. Besides, the “average half-maximal effective dose (ED50) to reduce first-phase pain” value in test [2] (intraplantar with formalin, Swiss mice, ten experiments) was found to be 97.0 µg. For the same compound, in test [3] (n=8), the “average ED50, magnesium sulfate-evoked writhing” value is 25 mg/kg. Further, the “number of writhing episodes evoked by magnesium sulfate” value in test [3] (GW7647 1-30, Wy-14643 4-80, PEA 1-20 mg-kg^−1) was “dose-dependently decreased the number of writhing episodes”. Further, the “TPA-induced ear edema formation” value in test [4] was “attenuated”. For the same compound, the “carrageenan paw edema in wild-type mice” value in test [5] was “decreased edema”. Moreover, the “[^3H]-WIN-55212-2 Binding (% of control)” value in test [6] (Concentration 1 μM) is listed as 104.2 ± 3.6 % of control; in test [6] (Concentration 10 μM) it was 105.6 ± 1.5 % of control.
For the compound `Cc1c(C(=O)NN2CCCCC2)nn(-c2ccc(Cl)cc2Cl)c1-c1ccc(Cl)cc1` [SR141716], in test [2] (SR141716 0.1 mg kg^−1 i.v., 10 min before formalin, agonists 0.1 μg/paw each), the “effect on antinociception by anandamide plus PEA or GW7647” value was “prevents”.
Turning to `Cc1cc(SCc2sc(-c3ccc(C(F)(F)F)cc3)nc2C)ccc1OCC(=O)O` [GW501516], the “phase I and II formalin pain in wild-type mice” value in test [2] (50 μg i.pl.) is “inactive”.
For SR144528, in test [2] (setting [8]), the “effect of CB2 antagonist on antinociceptive effect of GW7647” value is reported as “reverse” and the “effect of CB2 antagonist on antinociceptive effect of PEA” value is listed as “blocked”. Also, in test [2] (formalin, Swiss mice, Wy-14643 100 μg i.pl., SR144528 1 mg-kg^−1), the “effect of CB2 antagonist on antinociceptive effect of Wy-14643” value was “reverse”. Besides, in test [1] (PEA 10 μM, SR144528 0-5 μM), the “antagonism of PEA-induced PPARα activation in vitro” value is recorded as “did not significantly antagonize”.
In the case of `NCC1(CC(=O)O)CCCCC1` [gabapentin], the “mechanical and thermal pain thresholds in the non-ligated paw of neuropathic mice” value in test [7] (data not shown) is listed as “did not affect”. In addition, in test [7] (single s.c. dose day 7 and 14 after surgery, 60 min before test, PEA, GW7647 30 mg-kg^−1, gabapentin 60 mg-kg^−1), the “neuropathic hypersensitivity (mechanical and thermal pain thresholds), ligated limb” value is given as “comparable in magnitude”.
